Changes are numbered by the printed parent chain.
How the values were obtained:
GlyT2 Y430L mutant = biological target: T1, GlyT2 Y430L mutant (Homo sapiens, UniProt Q9Y345, Y430L); test: Inhibitor washout time course (reversibility); format: cell-based; set-up: expressed in transfected cells; host or cells: Xenopus laevis oocytes injected with mutant RNA (pOTV vector)
T1 sequence (Q9Y345 1-797 Y430L): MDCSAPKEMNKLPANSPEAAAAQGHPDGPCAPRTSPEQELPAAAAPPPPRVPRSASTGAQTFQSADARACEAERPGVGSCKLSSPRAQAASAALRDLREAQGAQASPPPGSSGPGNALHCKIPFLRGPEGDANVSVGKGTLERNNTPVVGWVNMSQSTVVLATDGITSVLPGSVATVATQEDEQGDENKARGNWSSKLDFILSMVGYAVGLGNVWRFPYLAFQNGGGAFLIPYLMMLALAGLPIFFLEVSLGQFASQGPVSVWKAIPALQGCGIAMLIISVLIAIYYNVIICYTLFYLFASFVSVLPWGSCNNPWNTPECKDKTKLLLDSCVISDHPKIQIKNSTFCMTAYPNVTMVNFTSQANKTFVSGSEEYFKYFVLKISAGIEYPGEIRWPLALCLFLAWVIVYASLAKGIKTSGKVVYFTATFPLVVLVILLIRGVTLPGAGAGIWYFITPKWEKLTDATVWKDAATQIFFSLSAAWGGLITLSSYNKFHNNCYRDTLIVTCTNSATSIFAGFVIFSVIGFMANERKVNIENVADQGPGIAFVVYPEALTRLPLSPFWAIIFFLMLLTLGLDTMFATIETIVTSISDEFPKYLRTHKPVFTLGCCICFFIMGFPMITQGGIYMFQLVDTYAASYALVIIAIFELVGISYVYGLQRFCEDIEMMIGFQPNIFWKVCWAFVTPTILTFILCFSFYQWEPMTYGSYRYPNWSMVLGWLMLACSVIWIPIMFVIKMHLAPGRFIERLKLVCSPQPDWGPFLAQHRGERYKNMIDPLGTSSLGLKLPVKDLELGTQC
Method: (§1) Reversibility of GlyT2 inhibitors was determined by applying an EC50 concentration of glycine followed by co-application of the inhibitor at an IC50 concentration once a stable current had been achieved. Inhibitors were applied for 4 min as this was sufficient time to produce substantial inhibition for each compound and allowed for their direct comparison. At the conclusion of 4 min (time 0), ND96 buffer was perfused through the recording chamber to wash the oocyte. […] Transport currents were normalized to glycine currents in the absence of inhibitor and converted to % recovery values via Y=It−It=0/Imax−It=0, where Y is % recovery, I is current in nA, Imax is the maximal current produced by the glycine EC50, and t is time in minutes. Washout kinetics were then determined by fitting % recovery values to the first-order rate equation: Y=(Y0−Plateau).e^(−Kt)+Plateau, where Y is the % recovery, Y0 is the point, which crosses the Y-axis (constrained to 0) and increases to the plateau (constrained to between 0 and 100), K is the rate constant (1/t), and t is time in minutes. […] Because of the slowly […] nature of the inhibitors, washout time courses involving cyclodextrin treatment could not be performed on the same cell. […] As these experiments could not occur on the same cell, differences in half-life and maximal recovery were analysed via an unpaired two-tailed t test.

GlyT2 Y430F mutant = biological target: T2, GlyT2 Y430F mutant (Homo sapiens, UniProt Q9Y345, Y430F); test: Inhibitor washout time course (reversibility); format: cell-based; set-up: expressed in transfected cells; host or cells: Xenopus laevis oocytes injected with mutant RNA (pOTV vector)
T2 sequence (Q9Y345 1-797 Y430F): T1 sequence (Q9Y345 1-797 Y430L) with L430F
Method: as §1

[1] = washout after 4 min IC50 concentration

Compound: CCCCCCCC/C=C\CCCCCCCC(=O)O[C@H](CC(=O)[O-])C[N+](C)(C)C [Oleoyl-L-Carnitine, oleoyl-L-carnitine]
- Recovery at 30 Min (GlyT2 Y430L mutant; [1]): 80.6%
- Recovery at 30 Min (GlyT2 Y430F mutant; [1]): 24.7%

Compound: CCCCCCCC/C=C\CCCCCCCC(=O)N[C@@H](Cc1c[nH]c2ccccc12)C(=O)O [Oleoyl-L-Tryptophan, oleoyl-L-tryptophan]
- Half-life (transport current recovery) (GlyT2 Y430L mutant; [1]): No Recovery
- Recovery at 30 Min (GlyT2 Y430L mutant; [1]): No Recovery
- Half-life (transport current recovery) (GlyT2 Y430F mutant; [1]): No Recovery
- Recovery at 30 Min (GlyT2 Y430F mutant; [1]): No Recovery

Compound: CCCCCCCC/C=C\CCCCCCCC(=O)N[C@@H](CCCCN)C(=O)O [Oleoyl-L-Lysine, oleoyl-L-lysine]
- Increase in recovery of current 30 min after application, vs WT (GlyT2 Y430L mutant): 17.4%
- Recovery at 30 Min (GlyT2 Y430L mutant; [1]): 72.5 ± 2.1 %
- Increase in recovery after 30 min, vs WT (GlyT2 Y430F mutant): 13.4%
- Recovery at 30 Min (GlyT2 Y430F mutant; [1]): 68.5 ± 2.1 %

Compound: CCCCCCCC/C=C\CCCCCCCC(=O)N[C@@H](CC(C)C)C(=O)O [Oleoyl-L-Leucine, oleoyl-L-leucine]
- Increase in recovery of current 30 min after application, vs WT (GlyT2 Y430L mutant): 16.8%
- Recovery at 30 Min (GlyT2 Y430L mutant; [1]): 67.9 ± 2.3 %
- Reduction in recovery of current 30 min after application, vs WT (GlyT2 Y430F mutant): 24.5%
- Recovery at 30 Min (GlyT2 Y430F mutant; [1]): 26.6 ± 2.3 %
